According to US6451807B1, “Methods of treating sexual dysfunction in an individual suffering from a retinal disease, class 1 congestive heart failure, or myocardial infarction using a PDE5 inhibitor” (Lilly Icos, LLC., priority 1999, dated 2002):

Legend:
PDE1c = molecular target: T1, PDE1c (Homo sapiens, UniProt Q14123); test: PDE1c enzyme inhibition, IC50 determination; assay type: biochemical; settings: read-out: IC50 against PDE1c
T1 construct: made in house; host or cells: Spodoptera frugiperda Sf9 cells
T1 sequence (Q14123 whole entry, species assumed): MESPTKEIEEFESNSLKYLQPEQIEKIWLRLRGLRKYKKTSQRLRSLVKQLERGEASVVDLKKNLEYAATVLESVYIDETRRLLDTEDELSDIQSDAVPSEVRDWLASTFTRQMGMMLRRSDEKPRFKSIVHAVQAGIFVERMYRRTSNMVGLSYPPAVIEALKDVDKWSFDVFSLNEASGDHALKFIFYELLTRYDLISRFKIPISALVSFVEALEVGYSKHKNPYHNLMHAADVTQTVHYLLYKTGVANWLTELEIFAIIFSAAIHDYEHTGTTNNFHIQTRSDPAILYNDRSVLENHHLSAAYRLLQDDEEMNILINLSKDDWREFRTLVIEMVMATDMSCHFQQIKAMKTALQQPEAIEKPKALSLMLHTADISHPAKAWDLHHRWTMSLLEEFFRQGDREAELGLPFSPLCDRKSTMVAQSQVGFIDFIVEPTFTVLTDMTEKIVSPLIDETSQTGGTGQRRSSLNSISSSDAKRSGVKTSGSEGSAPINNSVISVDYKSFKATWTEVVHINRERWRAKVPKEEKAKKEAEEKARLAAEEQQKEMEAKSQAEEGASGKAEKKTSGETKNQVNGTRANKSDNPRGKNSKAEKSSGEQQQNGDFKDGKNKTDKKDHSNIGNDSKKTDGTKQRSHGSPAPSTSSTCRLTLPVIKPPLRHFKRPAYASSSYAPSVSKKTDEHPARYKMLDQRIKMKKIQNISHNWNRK
Experimental: Cell pellets (5g) were thawed on ice with 20 ml of Lysis Buffer (50 mM MOPS pH 7.4, 10 μM ZnSO4, 0.1 mM CaCl2, 1 mM DTT, 2 mM benzamidine HCl, 5μg/ml each of pepstatin, leupeptin, and aprotenin). Cells were lysed by passage through a French pressure cell (SLM-Aminco) while temperatures were maintained below 10° C. The resultant cell homogenate was centrifuged at 36,000 rpm at 4° C. for 45 minutes in a Beckman ultracentrifuge using a Type TI45 rotor. The supernatant was discarded and the resultant pellet was resuspended with 40 ml of Solubilization Buffer (Lysis Buffer containing 1M NaCl, 0.1M MgCl2, 1 mM CaCl2, 20 μg/ml calmodulin, and 1% Sulfobetaine SB12 (Z3-12) by sonicating using a VibraCell tuner with a microtip for 3×30 seconds. This was performed in a crushed ice/salt mix for cooling. Following sonication, the mixture was slowly mixed for 30 minutes at 4° C. to finish solubilizing membrane bound proteins. This mixture was centrifuged in a Beckman ultracentrifuge using a type TI45 rotor at 36,000 rpm for 45 minutes. The supernatant was diluted with Lysis Buffer containing 10 μg/ml calpain inhibitor I and II. The precipitated protein was centrifuged for 20 minutes at 9,000 rpm in a Beckman JA-10 rotor. The recovered supernatant then was subjected to Mimetic Blue AP Agarose Chromatography. […]

healthy male volunteers = test: Clinical pharmacology drug interaction study with short-acting nitrates (Example 5); assay type: in vivo, human
Experimental: This study was a randomized, double-blind, placebo-controlled, two-way crossover design clinical pharmacology drug interaction study that evaluated the hemodynamic effects of concomitant administration of a selective PDE5 inhibitor Study Drug (i.e., the compound of structural formula (I)) and short-acting nitrates on healthy male volunteers. In this study, the subjects received either the Study Drug at a dose of 10 mg or a placebo, daily for seven days. On the sixth or seventh day, the subjects received sublingual nitroglycerin (0.4 mg) while supine on a tilt table. The nitroglycerin was administered 3 hours after Study Drug dosing, and all subjects kept the nitroglycerin tablet under their tongue until it completely dissolved. The subjects were tilted to 70° head-up every 5 minutes for a total of 30 minutes with measurement of blood pressure and heart rate. There were no discontinuations among the twenty-two healthy male subjects (ages 19 to 60 years old) that entered this study.

[1] = 10 mg daily for seven days, sublingual nitroglycerin 0.4 mg, preliminary analysis
[2] = 10 mg daily for seven days, preliminary analysis

CN1CC(=O)N2[C@H](c3ccc4c(c3)OCO4)c3[nH]c4ccccc4c3C[C@@H]2C1=O [Compound 5, (6R-trans)-6-(1,3-benzodioxol-5-yl)-2,3,6,7,12,12a-hexahydro-2-methylpyrazino[1′,2′:1,6]pyrido[3,4-b]indole-1,4-dione]
IC50 (PDE1c): 10 µM | serious adverse events (healthy male volunteers; [1]): no serious adverse events | tolerability (healthy male volunteers; [1]): well tolerated | changes in laboratory safety assessments or 12-lead ECGs (healthy male volunteers; [2]): no Study Drug-associated changes in laboratory safety assessments or 12-lead ECGs | most common adverse events (healthy male volunteers; [2]): headache, dyspepsia, and back pain | effects on mean systolic blood pressure and on mean maximal nitroglycerin-induced decrease in systolic blood pressure (healthy male volunteers; 10 mg daily, nitroglycerin 0.4 mg 3 hours after dosing, tilt table): minimal effects | impact on systolic blood pressure (healthy male volunteers; human clinical studies, administered in conjunction with organic nitrates): minimal impact on systolic blood pressure
